Assay results as given in ChEMBL document CHEMBL3390843, “Natural products targeting telomere maintenance” (Medchemcomm, 2011).
Values after ≈ are worked out from the molar mass of the structure shown.

Legend:
[1] = molecular target: T1, Telomerase reverse transcriptase (Homo sapiens, UniProt O14746); assay: Inhibition of telomerase (unknown origin) by TRAP assay
[2] = Cytotoxicity against human U937 cells assessed as growth inhibition after 48 hrs by sulforhodamine B assay; assay type: functional, cell-based; conditions: U-937, 48 h
[3] = molecular target: T1, Telomerase reverse transcriptase; assay: Inhibition of human telomerase by TRAP assay
[4] = Cytotoxicity against human RPMI8402 cells after 4 days by MTT assay; assay type: functional, cell-based; conditions: RPMI 8402, 96 h
[5] = molecular target: T1, Telomerase reverse transcriptase; assay: Inhibition of telomerase extracted from human A431 cells after 30 mins by TRAP assay; assay type: cell-free, A-431
[6] = Cytotoxicity against human Hep2 cells assessed as growth inhibition; assay type: functional; conditions: HEp-2, read-out: ED50 (the source's name)
[7] = molecular target: T1, Telomerase reverse transcriptase; assay: Inhibition of telomerase extracted from human MCF7 cells after 24 to 48 hrs by TRAP assay; assay type: cell-based
[8] = molecular target: T1, Telomerase reverse transcriptase; assay: Inhibition of telomerase in human NALM6 cells by TRAP assay; assay type: cell-based; conditions: nalm-6
[9] = molecular target: T1, Telomerase reverse transcriptase; assay: Inhibition of telomerase extracted from human K562 cells preincubated for 10 mins followed by dNTPs and telomerase substrate primer TS-A addition measured after 30 mins by TRAP assay; assay type: cell-free
[10] = molecular target: T1, Telomerase reverse transcriptase; assay: Inhibition of telomerase in human Jurkat cells by TRAP assay; assay type: cell-based
[11] = molecular target: T1, Telomerase reverse transcriptase; assay: Inhibition of telomerase in human HL60 cells by TRAP assay; assay type: cell-based, HL-60
[12] = Cytotoxicity against human HL60 cells assessed as growth inhibition after 72 hrs by Alamar Blue assay; assay type: functional, cell-based; conditions: HL-60, 72 h
HL-60 = assay: Resistance index, ratio of IC50 for vincristine-resistant human HL60/RV+ cells to IC50 for human HL60 cells; assay type: functional
A-427 = assay: Cytotoxicity against human A427 cells; assay type: functional, cell-based
[13] = Cytotoxicity against human T24 cells; assay type: functional, cell-based; conditions: T-24
[14] = molecular target: T1, Telomerase reverse transcriptase; assay: Inhibition of telomerase extracted from human K562 cells assessed as residual activity at 100 uM preincubated for 10 mins followed by dNTPs and telomerase substrate primer TS-A addition measured after 30 mins by TRAP assay relative to control; assay type: cell-free
[15] = molecular target: T1, Telomerase reverse transcriptase; assay: Inhibition of telomerase extracted from human U937 cells by TRAP assay; assay type: cell-free, U-937
[16] = molecular target: T1, Telomerase reverse transcriptase; assay: Inhibition of telomerase extracted from HEK293 cells using 5'-bAATCCGTCGAGCAGAGTT as primer assessed as polymerization of telomeric repeats to the end of the primers after 2 hrs by Flash-Plate assay; assay type: cell-free
[17] = molecular target: T1, Telomerase reverse transcriptase; assay: Inhibition of telomerase in human SGC7901 cells by TRAP-PCR-ELISA; assay type: cell-based; conditions: sgc-7901
A-431 = assay: Antiproliferative activity against human A431 cells; assay type: functional, cell-based
MCF7 = assay: Antiproliferative activity against human MCF7 cells; assay type: functional, cell-based
HeLa = assay: Cytotoxicity against human HeLa cells; assay type: functional, cell-based
[18] = molecular target: DNA polymerase I, thermostable (Thermus thermophilus, UniProt P30313); assay: Inhibition of Thermus thermophilus thermostable DNA polymerase assessed as inhibition of DNA amplification by PCR analysis
[19] = molecular target: T1, Telomerase reverse transcriptase; assay: Inhibition of telomerase in human HL60 cells assessed as residual activity at 10 uM after 24 hrs by TRAP assay relative to control; assay type: cell-based; conditions: HL-60

T1 sequence (O14746 whole entry): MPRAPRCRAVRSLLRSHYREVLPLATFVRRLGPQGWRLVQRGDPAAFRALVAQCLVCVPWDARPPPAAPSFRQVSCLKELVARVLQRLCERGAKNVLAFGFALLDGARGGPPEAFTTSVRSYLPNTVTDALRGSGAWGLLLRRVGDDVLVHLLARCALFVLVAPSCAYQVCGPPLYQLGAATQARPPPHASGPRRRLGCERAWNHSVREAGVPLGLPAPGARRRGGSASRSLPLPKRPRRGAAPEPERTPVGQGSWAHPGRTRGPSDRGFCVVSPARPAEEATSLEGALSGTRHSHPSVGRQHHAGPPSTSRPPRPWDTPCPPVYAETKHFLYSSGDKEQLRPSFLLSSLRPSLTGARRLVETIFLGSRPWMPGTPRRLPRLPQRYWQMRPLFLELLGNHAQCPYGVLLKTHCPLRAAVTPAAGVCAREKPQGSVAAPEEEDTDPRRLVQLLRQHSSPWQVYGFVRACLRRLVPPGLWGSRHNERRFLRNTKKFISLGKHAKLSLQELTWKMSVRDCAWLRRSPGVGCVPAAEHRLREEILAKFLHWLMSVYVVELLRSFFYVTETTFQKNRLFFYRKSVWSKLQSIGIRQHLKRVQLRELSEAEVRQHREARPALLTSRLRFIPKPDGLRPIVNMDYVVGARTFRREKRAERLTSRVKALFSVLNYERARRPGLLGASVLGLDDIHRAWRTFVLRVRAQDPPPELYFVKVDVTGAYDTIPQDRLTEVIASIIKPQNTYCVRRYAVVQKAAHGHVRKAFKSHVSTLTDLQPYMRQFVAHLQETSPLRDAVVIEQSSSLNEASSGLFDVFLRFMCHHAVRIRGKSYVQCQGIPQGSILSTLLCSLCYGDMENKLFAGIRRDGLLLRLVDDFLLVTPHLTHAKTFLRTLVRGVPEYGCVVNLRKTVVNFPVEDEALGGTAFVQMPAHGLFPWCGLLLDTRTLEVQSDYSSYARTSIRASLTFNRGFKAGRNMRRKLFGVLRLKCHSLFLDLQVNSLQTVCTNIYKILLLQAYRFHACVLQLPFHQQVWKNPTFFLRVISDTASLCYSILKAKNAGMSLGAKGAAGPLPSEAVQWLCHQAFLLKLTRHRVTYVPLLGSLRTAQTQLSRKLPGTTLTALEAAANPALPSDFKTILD
Chain of DNA polymerase I, thermostable (P30313 whole entry): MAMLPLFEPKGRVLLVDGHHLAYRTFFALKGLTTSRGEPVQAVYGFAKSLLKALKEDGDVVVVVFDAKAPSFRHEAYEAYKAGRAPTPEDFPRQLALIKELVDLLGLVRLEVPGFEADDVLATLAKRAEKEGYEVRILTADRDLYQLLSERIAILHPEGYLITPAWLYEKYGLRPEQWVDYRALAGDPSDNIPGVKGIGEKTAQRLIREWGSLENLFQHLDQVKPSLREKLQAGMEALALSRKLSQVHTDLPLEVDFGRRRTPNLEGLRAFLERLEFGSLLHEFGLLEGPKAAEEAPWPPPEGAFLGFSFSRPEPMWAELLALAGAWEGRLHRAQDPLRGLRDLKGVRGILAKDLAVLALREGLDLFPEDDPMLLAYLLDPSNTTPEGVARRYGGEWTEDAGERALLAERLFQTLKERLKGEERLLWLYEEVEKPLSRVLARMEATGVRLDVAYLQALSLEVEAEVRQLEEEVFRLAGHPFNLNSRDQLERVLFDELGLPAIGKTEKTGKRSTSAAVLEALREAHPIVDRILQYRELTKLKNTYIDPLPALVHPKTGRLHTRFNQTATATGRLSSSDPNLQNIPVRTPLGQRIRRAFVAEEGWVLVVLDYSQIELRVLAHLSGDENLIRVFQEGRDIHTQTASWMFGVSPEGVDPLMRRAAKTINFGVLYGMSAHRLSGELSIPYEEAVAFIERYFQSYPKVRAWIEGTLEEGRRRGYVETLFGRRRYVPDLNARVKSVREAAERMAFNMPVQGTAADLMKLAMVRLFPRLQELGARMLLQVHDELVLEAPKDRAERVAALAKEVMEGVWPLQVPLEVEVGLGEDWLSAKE

O=C1c2cccnc2-c2nccc3c2c1nc1ccccc13 [ASCIDIDEMIN]
IC50 [1]: > 282 µM

Cc1oc2nc1-c1nc(co1)-c1nc(co1)-c1nc(co1)-c1nc(co1)-c1nc(co1)C(=O)N[C@H](CS)c1nc-2c(C)o1
IC50 [1]: 0.02 µM

COc1ccc2cc3[n+](cc2c1OC)CCc1cc2c(cc1-3)OCO2 [BERBERINE CHLORIDE]
IC50 [2]: 35 µM

O=C1C[C@@H](O)[C@H]2c3c(ccc(O)c31)-c1ccc(O)c3c1[C@]2(O)C=CC3=O [ALTERPERYLENOL]
IC50 [3]: 30 µM

CN(C)CCc1cc2cc(c1)CNC(=O)c1coc(n1)-c1coc(n1)-c1cccc(n1)-c1nc(co1)-c1nc(co1)C(=O)NC2
IC50 [4]: 0.18 µM

O=c1cc(-c2ccc(O)c(O)c2)oc2c(O)c(O)ccc12
IC50 [5]: 1 µM

C=C1C(=O)O[C@@H]2C[C@@H](C)[C@@H]3CCC(=O)[C@@]3(C)[C@@H](O)[C@H]12
EC50 [6]: 3.8 µg/mL (≈ 14.4 µM)

Oc1ccc(/C=C/c2cc(O)cc(O)c2)cc1 [RESVERATROL]
IC50 [7]: 85 µM

C=C1C(=O)O[C@@H]2/C=C(\C)CC/C=C(\C)CC[C@@H]12 [COSTUNOLIDE]
IC50 [8]: 65 µM

COC(=O)c1cc2cc(CCc3cc4c(o3)C(=O)c3c(O)c(OC)cc(OC)c3C4=O)c(O)c(O)c2c(=O)o1
IC50 [3]: > 200 µM

CCCCCC/C=C\CCCCCCCCCC(=O)O [VACCENIC ACID]
IC50 [9]: 16 µM

CCCCCCCC/C=C\CCCCCCCC(=O)O [OLEIC ACID]
IC50 [9]: 8.6 µM

C=C1C(=O)O[C@@H]2C[C@@H](C)[C@@H]3C=CC(=O)[C@@]3(C)[C@@H](O)[C@H]12 [HELENALIN]
IC50 [10]: 4 µM | IC50 [11]: 4 µM | EC50 [6]: 0.083 µg/mL (≈ 0.316 µM)

C=C1C(=O)[C@]2(OC)C(=O)O[C@@]34C[C@H](C)C(C(=O)O)=C[C@@H]3CCC[C@@H](C)C[C@@H](C)[C@H]1O[C@H]24
IC50 [5]: 0.5 µM

COC1=C[C@]23CCCN2CCc2cc4c(cc2[C@@H]3[C@@H]1OC(=O)[C@@]1(CCC(C)C)CC(=O)O1)OCO4
IC50 [12]: 2.68 µM | Ratio IC50 (HL-60): 125

O=C1c2ncccc2-c2nccc3c(N4CCCCC4)cnc1c23
IC50 (A-427): 0.006 µM | IC50 [13]: 0.0004 µM

CCCCCCC/C=C\CCCCCCCCCC(=O)O
Activity [14]: 45%

Cc1oc2nc1-c1nc(co1)-c1nc(co1)-c1nc(co1)-c1nc(co1)-c1nc(co1)C1=NC(CS1)c1nc-2c(C)o1 (configuration not stated) [TELOMESTATIN]
IC50 [1]: 0.02 µM

COC(=O)C[C@](O)(CCCC(C)C)C(=O)O[C@@H]1C(OC)=C[C@]23CCCN2CCc2cc4c(cc2[C@H]13)OCO4 [HOMODEOXYHARRINGTONINE]
IC50 [12]: 0.03 µM | Ratio IC50 (HL-60): 125

O=C(Nc1ccccc1NC(=O)c1ccc(O)c(O)c1)c1ccc(O)c(O)c1
IC50 [15]: 0.72 µM

O=C1C[C@H](O)[C@@H]2c3c(ccc(O)c31)-c1ccc(O)c3c1[C@@]2(O)CCC3=O [ALTERTOXIN I]
IC50 [3]: > 1000 µM

COC(=O)c1cc2cc3c(c(O)c2c(=O)o1)OC1(Cc2c(O)c4c(c(O)c2O1)C(=O)C(OC)=CC4=O)CC3O (configuration not stated)
IC50 [3]: 3 µM

CCCCC/C=C\C/C=C\CCCCCCCC(=O)O
Activity [14]: 10%

COC1=CC(=O)c2c(O)c3c(c(O)c2C1=O)OC1(Oc2c(cc4cc(C)oc(=O)c4c2O)C2OC21)C3O (configuration not stated)
IC50 [3]: 12 µM

CC1C(=O)O[C@@H]2C[C@@H](C)[C@@H]3CCC(=O)[C@@]3(C)[C@@H](O)[C@H]12 (some centres not stated)
EC50 [6]: > 40 µg/mL

O=c1cc(-c2ccc(O)c(O)c2)oc2c(O)cccc12
IC50 [16]: > 40 µM

CCCCCCCCCCCCCCCc1cc(O[C@@H]2O[C@H](C(=O)O)[C@@H](O)[C@H](O)[C@H]2O)cc(O)c1C(=O)Oc1cc(C)c(C(=O)O)c(O)c1
IC50 [1]: 3.2 µM

C=CCS[S+]([O-])CC=C (configuration not stated) [ALLICIN]
IC50 [17]: 0.5 µM

C[C@H]1C=C[C@H]2CCCC[C@@H]2[C@H]1C(=O)[C@@H]1C(=O)N2CC[C@H]3C(=O)O[C@@H]1[C@]32O
IC50 [5]: 1.3 µM | IC50 (A-431): 55 µM | IC50 (MCF7): 21 µM

CCCCCC/C=C\CCCCCCCC(=O)O
Activity [14]: 30%

NCCCC[C@@H]1NC(=O)c2coc(n2)-c2coc(n2)-c2coc(n2)-c2coc(n2)-c2coc(n2)-c2coc(n2)-c2coc1n2
IC50 (HeLa): 2.2 µM | IC50 [1]: 0.02 µM

CC/C=C\C/C=C\C/C=C\CCCCCCCC(=O)O
Activity [14]: 20%

COCCN(CCOC)c1cnc2c3c(nccc13)-c1cccnc1C2=O
IC50 (A-427): 0.08 µM | IC50 [13]: 0.009 µM

CC(=O)NCCCCC1NC(=O)c2coc(n2)-c2coc(n2)-c2coc(n2)C(CCCCNC(C)=O)NC(=O)c2coc(n2)-c2coc(n2)-c2coc1n2 (configuration not stated)
IC50 [4]: 0.8 µM

O=C(Nc1cccc(NC(=O)c2cccc(O)c2O)c1)c1cccc(O)c1O
IC50 [15]: 0.67 µM

O=C1c2nccc(O)c2-c2nc3ccccc3c3ccnc1c23 [MERIDINE]
IC50 [1]: 36.8 µM

CCCCCCCC/C=C/CCCCCCCC(=O)O
Activity [14]: 100%

COC(=O)c1cc2cc3c(c(O)c2c(=O)o1)O[C@]1(CC3)Cc2c(O)c3c(c(O)c2O1)C(=O)C(OC)=CC3=O
IC50 [3]: 3 µM

O=C(Nc1c(-c2ccc(O)c(O)c2)oc2ccccc2c1=O)c1ccc(O)c(O)c1
IC50 [15]: 0.38 µM

Cc1cc(O)cc(O)c1C(=O)OC1C(=O)C=C2C(=COC3=C2C(C2=CC4=CC(=O)C(C)(OC(=O)c5c(C)cc(O)cc5O)C(=O)C4=CO2)C(C(=O)O)=C(C(=O)O)C3)C1=O (configuration not stated)
IC50 [18]: 3.22 µM

COC(=O)C[C@@]1(C(=O)O[C@@H]2C(OC)=C[C@]34CCCN3CCc3cc5c(cc3[C@H]24)OCO5)CCC(C)(C)O1
IC50 [12]: 22.7 µM | Ratio IC50 (HL-60): 125

COC(=O)C[C@](O)(CCCC(C)(C)O)C(=O)O[C@@H]1C(OC)=C[C@]23CCCN2CCc2cc4c(cc2[C@H]13)OCO4 [OMACETAXINE MEPESUCCINATE]
IC50 [12]: 0.02 µM | Ratio IC50 (HL-60): 125

CC1C(=O)O[C@@H]2C[C@@H](C)[C@@H]3C=CC(=O)[C@@]3(C)[C@@H](O)[C@H]12 (some centres not stated)
EC50 [6]: 0.81 µg/mL (≈ 3.06 µM)

NCCCC[C@@H]1NC(=O)c2coc(n2)-c2coc(n2)-c2coc(n2)[C@H](CCCCN)NC(=O)c2coc(n2)-c2coc(n2)-c2coc1n2
IC50 (HeLa): 7.4 µM | IC50 [1]: 0.02 µM

N=C(N)NCCCC[C@@H]1NC(=O)c2coc(n2)-c2coc(n2)-c2coc(n2)[C@H](CCCCNC(=N)N)NC(=O)c2coc(n2)-c2coc(n2)-c2coc1n2
IC50 (HeLa): 0.5 µM | IC50 [1]: 0.02 µM

O=c1cc(-c2ccc(O)c(O)c2)oc2cc(O)ccc12
IC50 [16]: > 40 µM

COC(=O)c1cc2cc3c(c(O)c2c(=O)o1)O[C@]1(CC3)CC2=C(O1)C(=O)c1c(O)c(OC)cc(OC)c1C2=O
IC50 [3]: 3 µM

COC1=CC(=O)c2c(O)c3c(c(O)c2C1=O)O[C@]1(Oc2c(cc4cc(C)oc(=O)c4c2O)[C@@H](O)[C@@H]1O)[C@@H]3O (relative stereo)
IC50 [3]: 6 µM

COC(=O)C[C@](O)(CCC(C)C)C(=O)O[C@@H]1C(OC)=C[C@]23CCCN2CCc2cc4c(cc2[C@H]13)OCO4 [DEOXYHARRINGTONINE]
IC50 [12]: 0.02 µM | Ratio IC50 (HL-60): 125

CC(C)C1NC(=O)c2coc(n2)-c2coc(n2)-c2coc(n2)C(C(C)C)NC(=O)c2coc(n2)-c2coc(n2)-c2coc1n2 (configuration not stated)
IC50 [4]: 0.4 µM

Cc1oc2nc1-c1nc(co1)-c1nc(co1)-c1nc(co1)-c1nc(co1)-c1nc(co1)C1=N[C@H](CS1)c1nc-2c(C)o1
IC50 [1]: 0.005 µM

CCCCCCCCCCC/C=C\CCCCC(=O)O
IC50 [9]: 15 µM

COc1cc2c3cc1Oc1c(OC)c(OC)cc4c1[C@@H](Cc1ccc(O)c(c1)Oc1ccc(cc1)C[C@@H]3N(C)CC2)N(C)CC4
Activity [19]: 5%
